{"source": "ChEMBL document CHEMBL1130384", "about": "“Address and message sequences for the nociceptin receptor: a structure-activity study of nociceptin-(1-13)-peptide amide” (J Med Chem, 1997)", "key": {"[1]": {"species": "Mus musculus", "test": "Tested for maximal effect induced by agonist", "format": "functional"}, "[2]": {"species": "Mus musculus", "test": "Tested for apparent affinity on electrically stimulated mouse vas deferens", "format": "functional, organism-based"}, "[3]": {"species": "Mus musculus", "test": "Tested for antagonistic properties by using NC(1-13)-NH2; In active at 10 uM", "format": "functional, organism-based"}, "[4]": {"species": "Mus musculus", "test": "Tested for maximal effect induced by agonist at 10 uM; Inactive", "format": "functional, organism-based"}, "[5]": {"species": "Mus musculus", "test": "Tested for apparent affinity on electrically stimulated mouse vas deferens at 10 uM; Inactive", "format": "functional, organism-based"}, "[6]": {"species": "Mus musculus", "test": "Tested for maximal effect induced by agonist at 10 uM; Slight effect was detected", "format": "functional, organism-based"}, "[7]": {"species": "Mus musculus", "test": "Tested for apparent affinity on electrically stimulated mouse vas deferens at 10 uM; Slight effect was detected", "format": "functional, organism-based"}, "[8]": {"species": "Mus musculus", "test": "Tested for antagonistic properties by using NC(1-13)-NH2 as agonist; Inactive at 10 uM", "format": "functional, organism-based"}, "[9]": {"species": "Mus musculus", "test": "Tested for maximal effect induced by agonist at 10 uM; In active", "format": "functional, organism-based"}, "[10]": {"species": "Mus musculus", "test": "Tested for apparent affinity on electrically stimulated mouse vas deferens at 10 uM; In active", "format": "functional, organism-based"}}, "note": "Active and inactive are the calls of the source. The rule behind the calls is not given here. Residues, ends and D or L forms follow the SMILES beside them."}
{"molecule": "C[C@H](NC(=O)CNC(=O)[C@@H](NC(=O)[C@H](Cc1ccccc1)NC(=O)CNC(=O)CNC(=O)[C@@H](N)Cc1ccccc1)[C@@H](C)O)C(=O)N[C@@H](CCCNC(=N)N)C(=O)N[C@@H](CCCCN)C(=O)N[C@@H](CO)C(=O)N[C@@H](C)C(=O)N[C@@H](CCCNC(=N)N)C(=O)N[C@@H](CCCCN)C(N)=O", "values": [{"measurement": "Emax", "setting": "[1]", "value": -84, "unit": "%"}, {"measurement": "EC50", "setting": "[2]", "value": 17.8, "unit": "nM"}]}
{"molecule": "C[C@H](NC(=O)CNC(=O)[C@@H](NC(=O)[C@H](Cc1ccccc1)NC(=O)CNC(=O)CNC(=O)[C@@H](N)Cc1ccccc1)[C@@H](C)O)C(=O)N[C@@H](CCCN=C(N)N)C(=O)N[C@@H](CCCCN)C(=O)N[C@@H](CO)C(=O)N[C@@H](C)C(=O)N[C@@H](CCCN=C(N)N)C(=O)N[C@@H](CCCCN)C(=O)O", "values": [{"measurement": "Emax", "setting": "[1]", "value": -73, "unit": "%"}, {"measurement": "EC50", "setting": "[2]", "value": 2240, "unit": "nM"}]}
{"molecule": "CC(=O)N[C@@H](Cc1ccccc1)C(=O)NCC(=O)NCC(=O)N[C@@H](Cc1ccccc1)C(=O)N[C@H](C(=O)NCC(=O)N[C@@H](C)C(=O)N[C@@H](CCCN=C(N)N)C(=O)N[C@@H](CCCCN)C(=O)N[C@@H](CO)C(=O)N[C@@H](C)C(=O)N[C@@H](CCCN=C(N)N)C(=O)N[C@@H](CCCCN)C(N)=O)[C@@H](C)O", "values": [{"measurement": "Emax", "setting": "[1]", "value": -79, "unit": "%"}, {"measurement": "EC50", "setting": "[2]", "value": 1510, "unit": "nM"}]}
{"molecule": "C=CCN(CC=C)[C@@H](Cc1ccccc1)C(=O)NCC(=O)NCC(=O)N[C@@H](Cc1ccccc1)C(=O)N[C@H](C(=O)NCC(=O)N[C@@H](C)C(=O)N[C@@H](CCCN=C(N)N)C(=O)N[C@@H](CCCCN)C(=O)N[C@@H](CO)C(=O)N[C@@H](C)C(=O)N[C@@H](CCCN=C(N)N)C(=O)N[C@@H](CCCCN)C(N)=O)[C@@H](C)O", "values": [{"measurement": "Activity", "setting": "[3]", "value": "inactive"}, {"measurement": "Emax", "setting": "[4]", "value": "inactive"}, {"measurement": "Log EC50", "setting": "[5]", "value": "inactive"}]}
{"molecule": "C[C@H](NC(=O)CNC(=O)[C@@H](NC(=O)[C@@H](Cc1ccccc1)NC(=O)CNC(=O)CNC(=O)[C@@H](N)Cc1ccccc1)[C@@H](C)O)C(=O)N[C@@H](CCCN=C(N)N)C(=O)N[C@@H](CCCCN)C(=O)N[C@@H](CO)C(=O)N[C@@H](C)C(=O)N[C@@H](CCCN=C(N)N)C(=O)N[C@@H](CCCCN)C(N)=O", "values": [{"measurement": "Activity", "setting": "[3]", "value": "inactive"}, {"measurement": "Emax", "setting": "[6]", "value": "crc incom"}, {"measurement": "Log EC50", "setting": "[7]", "value": "crc incom"}]}
{"molecule": "C[C@H](NC(=O)CNC(=O)[C@@H](NC(=O)[C@H](Cc1ccccc1)NC(=O)CNC(=O)CNC(=O)[C@@H](N)Cc1ccccc1)[C@@H](C)O)C(=O)N[C@@H](CCCN=C(N)N)C(=O)N[C@@H](CCCCN)C(=O)N[C@@H](CO)C(=O)N[C@@H](C)C(=O)N[C@@H](CCCN=C(N)N)C(=O)O", "values": [{"measurement": "Activity", "setting": "[3]", "value": "inactive"}, {"measurement": "Emax", "setting": "[4]", "value": "inactive"}, {"measurement": "Log EC50", "setting": "[5]", "value": "inactive"}]}
{"molecule": "C[C@H](NC(=O)CNC(=O)[C@@H](NC(=O)[C@H](Cc1ccccc1)NC(=O)CNC(=O)CNC(=O)[C@H](N)Cc1ccccc1)[C@@H](C)O)C(=O)N[C@@H](CCCN=C(N)N)C(=O)N[C@@H](CCCCN)C(=O)N[C@@H](CO)C(=O)N[C@@H](C)C(=O)N[C@@H](CCCN=C(N)N)C(=O)N[C@@H](CCCCN)C(N)=O", "values": [{"measurement": "Activity", "setting": "[3]", "value": "inactive"}, {"measurement": "Emax", "setting": "[6]", "value": "crc incom"}, {"measurement": "Log EC50", "setting": "[7]", "value": "crc incom"}]}
{"molecule": "NC(=O)[C@H](Cc1ccccc1)NC(=O)CNC(=O)CNC(=O)[C@@H](N)Cc1ccccc1", "note": "(H-FGGF-NH2)", "values": [{"measurement": "Activity", "setting": "[8]", "value": "inactive"}, {"measurement": "Emax", "setting": "[4]", "value": "inactive"}, {"measurement": "Log EC50", "setting": "[5]", "value": "inactive"}]}
{"molecule": "CC(C)C[C@H](NC(=O)[C@H](CCCCN)NC(=O)[C@H](CCCNC(=N)N)NC(=O)[C@H](C)NC(=O)[C@H](CO)NC(=O)[C@H](CCCCN)NC(=O)[C@H](CCCNC(=N)N)NC(=O)[C@H](C)NC(=O)CNC(=O)[C@@H](NC(=O)[C@H](Cc1ccccc1)NC(=O)CNC(=O)CNC(=O)[C@@H](N)Cc1ccccc1)[C@@H](C)O)C(=O)N[C@@H](C)C(=O)N[C@@H](CC(N)=O)C(=O)N[C@@H](CCC(N)=O)C(=O)O", "note": "[NOCICEPTIN]", "values": [{"measurement": "Emax", "setting": "[1]", "value": -83, "unit": "%"}, {"measurement": "EC50", "setting": "[2]", "value": 14.5, "unit": "nM"}]}
{"molecule": "H-FAAFTGARKSARK-NH2", "values": [{"measurement": "Activity", "setting": "[3]", "value": "inactive"}, {"measurement": "Emax", "setting": "[9]", "value": "inactive"}, {"measurement": "Log EC50", "setting": "[5]", "value": "inactive"}]}
{"molecule": "H-FGFTGARKSARK-NH2", "values": [{"measurement": "Activity", "setting": "[3]", "value": "inactive"}, {"measurement": "Emax", "setting": "[9]", "value": "inactive"}, {"measurement": "Log EC50", "setting": "[10]", "value": "inactive"}]}
{"molecule": "H-FGGFT-NH2", "values": [{"measurement": "Activity", "setting": "[3]", "value": "inactive"}, {"measurement": "Emax", "setting": "[4]", "value": "inactive"}, {"measurement": "Log EC50", "setting": "[5]", "value": "inactive"}]}
{"molecule": "H-FGGFTGAAASARK-NH2", "values": [{"measurement": "Activity", "setting": "[3]", "value": "inactive"}, {"measurement": "Emax", "setting": "[6]", "value": "crc incom"}, {"measurement": "Log EC50", "setting": "[7]", "value": "crc incom"}]}
{"molecule": "H-FGGFTGARK-NH2", "values": [{"measurement": "Activity", "setting": "[3]", "value": "inactive"}, {"measurement": "Emax", "setting": "[4]", "value": "inactive"}, {"measurement": "Log EC50", "setting": "[5]", "value": "inactive"}]}
{"molecule": "H-FGGFTGARKSA-NH2", "values": [{"measurement": "Activity", "setting": "[3]", "value": "inactive"}, {"measurement": "Emax", "setting": "[6]", "value": "crc incom"}, {"measurement": "Log EC50", "setting": "[7]", "value": "crc incom"}]}
{"molecule": "H-FGGFTGARKSAR-NH2", "values": [{"measurement": "Emax", "setting": "[1]", "value": -79, "unit": "%"}, {"measurement": "EC50", "setting": "[2]", "value": 871, "unit": "nM"}]}
{"molecule": "H-FGGLTGARKSARK-NH2", "values": [{"measurement": "Activity", "setting": "[3]", "value": "inactive"}, {"measurement": "Emax", "setting": "[4]", "value": "inactive"}, {"measurement": "Log EC50", "setting": "[5]", "value": "inactive"}]}
{"molecule": "H-LGGFTGARKSARK-NH2", "values": [{"measurement": "Emax", "setting": "[1]", "value": -80, "unit": "%"}, {"measurement": "EC50", "setting": "[2]", "value": 28.2, "unit": "nM"}]}
